The test system of this test is Influenza virus A/AA/6/60. Format: cell-based.

For the substance “t-octylphenoxypolyethoxyethanol [TRITON X-100]”, the “inhibition of the infectivity of virus” value is recorded as “only partially inhibited”. In addition, the “reduction of influenza A infection of MDCK cells” value (30 min) is “completely ineffective”.

Source of the values: patent US7655252B2 (priority 1999, dated 2010).
